Publication PMC12892976, “Alkylation-based optimization of antifungal FPPS inhibitors yields a potent, broad-spectrum lipophilic zoledronate derivative” (mBio, 2025)

What was measured:
Candida tropicalis = test: MIC broth microdilution (CLSI); type: cell-based; conditions: Candida tropicalis M230640
Protocol: (§1) Antifungal susceptibility was determined by broth microdilution according to the CLSI guidelines described in M27-Ed4 ([16]).

Candida dubliniensis = test: MIC broth microdilution (CLSI); type: cell-based; conditions: Candida dubliniensis M230642
Protocol: as §1

Cryptococcus tetragattii = test: MIC broth microdilution (CLSI); type: cell-based; conditions: Cryptococcus tetragattii WM779
Protocol: as §1

[1] = test system: Candida albicans biofilms; test: biofilm XTT reduction assay (SIC80, SFICI); conditions: for SICc / SFICI: Candida albicans
Protocol: (§2) Biofilms of Cryptococcus were seeded in DMEM, and all other species were seeded in RPMI-1640.

Aspergillus terreus = test: MIC broth microdilution (CLSI); type: cell-based; conditions: Aspergillus terreus 75-16-089-2500
Protocol: as §1

Cryptococcus gattii [2] = test: checkerboard drug interaction (FICI, MICc); type: cell-based;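 note: simplified diagonal checkerboard screen pairing antifungals with FPPS inhibitors, FICI computed under the Loewe additivity model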
Protocol: (§3) Drug interactions between antifungals and FPPS inhibitors were investigated using a simplified checkerboard diagonal screening method ([45]). […] FICIs were determined according to the Loewe additivity model ([17]).

Mucor circinelloides = test: checkerboard drug interaction (FICI, MICc); type: cell-based;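 note: simplified diagonal checkerboard screen pairing antifungals with FPPS inhibitors, FICI calculated under the Loewe additivity model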
Protocol: as §3

Cryptococcus gattii [3] = test: MIC broth microdilution (CLSI); type: cell-based; conditions: Cryptococcus gattii PNG27
Protocol: as §1

Nannizzia gypsea = test: MIC broth microdilution (CLSI); type: cell-based; conditions: Nannizzia gypsea R-131
Protocol: as §1

[4] = test system: 38 species of clinically relevant fungi; test: MIC summary across 38 species of clinically relevant fungi; type: cell-based; conditions: 38 fungal species
Source text: […]; Table S3). […]. […] […]. […] […].

Microsporum canis [5] = test: MIC broth microdilution (CLSI); conditions: Microsporum canis R-232
Protocol: as §1

Microsporum canis [6] = test: checkerboard drug interaction (FICI, MICc); type: cell-based;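 note: simplified diagonal checkerboard screen pairing antifungals with FPPS inhibitors, FICI calculated under the Loewe additivity model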
Protocol: as §3

Candida parapsilosis = test: checkerboard drug interaction (FICI, MICc); type: cell-based;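 note: simplified diagonal checkerboard screen pairing antifungals with FPPS inhibitors, with FICI computed under the Loewe additivity model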
Protocol: as §3

Pichia kudriavzevii = test: checkerboard drug interaction (FICI, MICc); type: cell-based;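 note: antifungal plus FPPS inhibitor interactions tested in a simplified diagonal checkerboard screen, with FICI calculated under the Loewe additivity model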
Protocol: as §3

[7] = test system: Cryptococcus deuterogattii biofilms; test: biofilm XTT reduction assay (SIC80, SFICI); conditions: for SICc / SFICI: Cryptococcus deuterogattii
Protocol: as §2

Trichophyton tonsurans = test: checkerboard drug interaction (FICI, MICc); type: cell-based;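 note: simplified diagonal checkerboard screen combining antifungals with FPPS inhibitors, with FICI calculated under the Loewe additivity model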
Protocol: as §3

Fusarium oxysporum = test: checkerboard drug interaction (FICI, MICc); type: cell-based;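 note: simplified diagonal checkerboard screen pairing antifungals with FPPS inhibitors, FICI calculated under the Loewe additivity model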
Protocol: as §3

Trichophyton soudanense = test: checkerboard drug interaction (FICI, MICc); type: cell-based;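 note: simplified diagonal checkerboard screen pairing antifungals with FPPS inhibitors, FICI computed under the Loewe additivity model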
Protocol: as §3

SMILES: CCCCCCCCCCn1cc[n+](CC(O)(P(=O)(O)O)P(=O)(O)O)c1 [10-ZOL, Decyl-zoledronate]
- MIC / MEC (Candida tropicalis): 2 µg/mL
- MIC / MEC (Candida dubliniensis): 1 µg/mL
- MIC / MEC (Cryptococcus tetragattii): 0.5 µg/mL
- SICc ([1]; FLC:10-ZOL combination): 32 µg/mL
- SFICI ([1]; FLC:10-ZOL): 0.50
- SICc ([1]; ITR:10-ZOL combination): 64 µg/mL
- SFICI ([1]; ITR:10-ZOL): 1.00
- SICc ([1]; KET:10-ZOL combination): 64 µg/mL
- SFICI ([1]; KET:10-ZOL): 1.00
- SIC80 ([1]; agent alone, Candida albicans SC5314): 128 µg/mL
- MIC / MEC (Aspergillus terreus): 0.5 µg/mL
- FICI (Cryptococcus gattii [2]; 5FC:10-ZOL): 1
- FICI (Cryptococcus gattii [2]; CAS:10-ZOL): 0.5
- FICI (Cryptococcus gattii [2]; FLC:10-ZOL): 1.5
- FICI (Cryptococcus gattii [2]; KET:10-ZOL): 0.5
- FICI (Cryptococcus gattii [2]; VOR:10-ZOL): 0.8
- bisphosphonate MICc (Cryptococcus gattii [2]; with 5FC): 0.25
- bisphosphonate MICc (Cryptococcus gattii [2]; with AMB): 0.125
- bisphosphonate MICc (Cryptococcus gattii [2]; with CAS): 0.125
- bisphosphonate MICc (Cryptococcus gattii [2]; with FLC): 0.5
- bisphosphonate MICc (Cryptococcus gattii [2]; with ITR): 0.125
- bisphosphonate MICc (Cryptococcus gattii [2]; with KET): 0.125
- bisphosphonate MICc (Cryptococcus gattii [2]; with VOR): 0.125
- FICI (Mucor circinelloides; 5FC:10-ZOL): ≥4
- FICI (Mucor circinelloides; AMB:10-ZOL): 2
- FICI (Mucor circinelloides; CAS:10-ZOL): ≥4
- FICI (Mucor circinelloides; ITR:10-ZOL): 1.5
- bisphosphonate MICc (Mucor circinelloides; with 5FC): 1
- bisphosphonate MICc (Mucor circinelloides; with AMB): 1
- bisphosphonate MICc (Mucor circinelloides; with CAS): 0.5
- bisphosphonate MICc (Mucor circinelloides; with FLC): 1
- bisphosphonate MICc (Mucor circinelloides; with ITR): 1
- bisphosphonate MICc (Mucor circinelloides; with KET): 0.125
- bisphosphonate MICc (Mucor circinelloides; with VOR): 0.125
- MIC / MEC (Cryptococcus gattii [3]): 0.5 µg/mL
- MIC / MEC (Nannizzia gypsea): 0.5 µg/mL
- overall MIC range [4]: 0.5 to 8 µg/mL
- MIC ([4]; read-out: GM MIC): 1.39 ± 1.6 µg/mL
- MIC / MEC (Microsporum canis [5]): 1 µg/mL
- FICI (Microsporum canis [6]; 5FC:10-ZOL): 3
- FICI (Microsporum canis [6]; CAS:10-ZOL): 2
- FICI (Microsporum canis [6]; VOR:10-ZOL): 1.16
- bisphosphonate MICc (Microsporum canis [6]; with 5FC): 1
- bisphosphonate MICc (Microsporum canis [6]; with AMB): 0.25
- bisphosphonate MICc (Microsporum canis [6]; with CAS): 1
- bisphosphonate MICc (Microsporum canis [6]; with FLC): 0.25
- bisphosphonate MICc (Microsporum canis [6]; with ITR): 0.5
- bisphosphonate MICc (Microsporum canis [6]; with KET): 1
- bisphosphonate MICc (Microsporum canis [6]; with VOR): 0.125
- FICI (Candida parapsilosis; CAS:10-ZOL): 0.5
- bisphosphonate MICc (Candida parapsilosis; with 5FC): 1
- bisphosphonate MICc (Candida parapsilosis; with AMB): 0.125
- bisphosphonate MICc (Candida parapsilosis; with CAS): 0.25
- bisphosphonate MICc (Candida parapsilosis; with FLC): 0.25
- bisphosphonate MICc (Candida parapsilosis; with ITR): 0.125
- bisphosphonate MICc (Candida parapsilosis; with KET): 0.25
- bisphosphonate MICc (Candida parapsilosis; with VOR): 0.25
- FICI (Pichia kudriavzevii; AMB:10-ZOL): 1
- FICI (Pichia kudriavzevii; KET:10-ZOL): 1.5
- FICI (Pichia kudriavzevii; VOR:10-ZOL): 1.03
- bisphosphonate MICc (Pichia kudriavzevii; with 5FC): 1
- bisphosphonate MICc (Pichia kudriavzevii; with AMB): 2
- bisphosphonate MICc (Pichia kudriavzevii; with CAS): 0.5
- bisphosphonate MICc (Pichia kudriavzevii; with FLC): 0.5
- bisphosphonate MICc (Pichia kudriavzevii; with ITR): 0.25
- bisphosphonate MICc (Pichia kudriavzevii; with KET): 2
- bisphosphonate MICc (Pichia kudriavzevii; with VOR): 0.125
- SICc ([7]; FLC:10-ZOL combination): 32 µg/mL
- SFICI ([7]; FLC:10-ZOL): 1.00
- SICc ([7]; ITR:10-ZOL combination): 32 µg/mL
- SFICI ([7]; ITR:10-ZOL): 1.00
- SICc ([7]; KET:10-ZOL combination): 16 µg/mL
- SFICI ([7]; KET:10-ZOL): 0.38
- SIC80 ([7]; agent alone, Cryptococcus deuterogattii R265): 64 µg/mL
- FICI (Trichophyton tonsurans; 5FC:10-ZOL): 2
- FICI (Trichophyton tonsurans; AMB:10-ZOL): 2.92
- FICI (Trichophyton tonsurans; CAS:10-ZOL): ≥4
- FICI (Trichophyton tonsurans; FLC:10-ZOL): 0.52
- bisphosphonate MICc (Trichophyton tonsurans; with 5FC): 1
- bisphosphonate MICc (Trichophyton tonsurans; with AMB): 1
- bisphosphonate MICc (Trichophyton tonsurans; with CAS): 1
- bisphosphonate MICc (Trichophyton tonsurans; with FLC): 0.5
- bisphosphonate MICc (Trichophyton tonsurans; with ITR): 1
- bisphosphonate MICc (Trichophyton tonsurans; with KET): 0.25
- bisphosphonate MICc (Trichophyton tonsurans; with VOR): 0.5
- FICI (Fusarium oxysporum; 5FC:10-ZOL): ≥4
- FICI (Fusarium oxysporum; AMB:10-ZOL): 1.03
- FICI (Fusarium oxysporum; CAS:10-ZOL): ≥4
- FICI (Fusarium oxysporum; VOR:10-ZOL): 0.5
- bisphosphonate MICc (Fusarium oxysporum; with 5FC): 4
- bisphosphonate MICc (Fusarium oxysporum; with AMB): 0.25
- bisphosphonate MICc (Fusarium oxysporum; with CAS): 1
- bisphosphonate MICc (Fusarium oxysporum; with FLC): 1
- bisphosphonate MICc (Fusarium oxysporum; with ITR): 1
- bisphosphonate MICc (Fusarium oxysporum; with KET): 1
- bisphosphonate MICc (Fusarium oxysporum; with VOR): 2
- FICI (Trichophyton soudanense; 5FC:10-ZOL): 2
- FICI (Trichophyton soudanense; FLC:10-ZOL): 0.28
